This is an account of results in patent publication US20110034369A1, “Agonists of Bitter Taste Receptors and Uses Thereof” (DEUTSCHES INSTITUT FUR ERNAHRUNGSFORSCHUNG POTSDAM-REHBRUCKE, priority 2004, published 2011).

Assay type in all cases: cell-based
In one experiment the target is T1, hTAS2R7 (Homo sapiens, UniProt Q9NYW3).
T1 construct: export tag: amino acids 1-45 of rat somatostatin receptor 3 (N); expressed in transfected cells; host or cells: HEK-293T cells stably expressing the chimeric G-protein subunit Galpha16gust44
T1 sequence (Q9NYW3 1-318): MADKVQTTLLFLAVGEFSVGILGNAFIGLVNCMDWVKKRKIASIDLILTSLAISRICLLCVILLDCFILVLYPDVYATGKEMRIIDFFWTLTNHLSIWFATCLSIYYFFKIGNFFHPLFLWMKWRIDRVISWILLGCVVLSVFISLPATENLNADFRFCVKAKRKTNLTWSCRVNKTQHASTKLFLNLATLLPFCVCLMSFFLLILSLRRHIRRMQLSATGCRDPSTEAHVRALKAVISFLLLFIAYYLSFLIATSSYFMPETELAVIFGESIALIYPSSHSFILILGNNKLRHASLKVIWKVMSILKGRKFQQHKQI
Put plainly: FLIPR calcium mobilization, hTAS2R7-transfected HEK-293T/Gα16gust44 cells. To be noted: response of hTAS2R7, calcium signal. Here is the method:
(§1) Ligand screening using an automated fluorometric imaging plate reader (Molecular Devices) was essentially done as described (Bufe B. et al. (2002) Nature Genetics 32: 397-401). Briefly: The cells were seeded at a density of 70,000±10,000 cells per well in 96-well microtiter plates. The cDNA of hTAS2R1, hTASR3, hTASR7 and hTASR40 supplemented with an amino terminal export tag corresponding to amino acids 1-45 of rat somatostatin receptor 3 and a carboxy terminal HSV-tag was transiently transfected into HEK-293T cells stably expressing the chimeric G-protein subunit Gα16gust44 (Ueda T. et al. (2003) J. Neurosci. 23: 7376-7380) using Lipofectamine2000 (Invitrogen). Expression rates were determined to be 20% for hTAS2R1; 35% for hTAS2R3, 14% for hTAS2R7 and 29% for hTAS2R40 by indirect immunocyclochemistry using monoclonal anti-HSV antibodies (Novagen) and secondary anti-mouse IgG antibodies coupled to Alexa 488 (Molecular probes) see (FIG. 1). 24-32 hours after transfection, the cells were then loaded for 1 hour with the calcium sensitive dye Fluo4-AM (2 μg/ml in DMEM, Molecular Probes). Cells were washed 3× in solution C1 (130 mM NaCl, 5 mM KCl, 10 mM Hepes, 2 mM CaCl2, and 10 mM Glucose, pH 7.4). Calcium mobilization was monitored by an automated fluorometric imaging plate reader (Molecular Devices). Ligands (Sigma-Aldrich) were dissolved in C1 solution. All data were collected from experiments carried out in triplicate. For dose-response curves, the obtained calcium signals were corrected for and normalized to background fluorescence ΔF/F=(F−F0)/F0 and baseline noise was subtracted.

The next experiment deals with T2, hTAS2R1 (Homo sapiens, UniProt Q9NYW7).
T2 construct: export tag: amino acids 1-45 of rat somatostatin receptor 3 (N); expressed in transfected cells; host or cells: HEK-293T cells stably expressing the chimeric G-protein subunit Galpha16gust44
T2 sequence (Q9NYW7 1-299): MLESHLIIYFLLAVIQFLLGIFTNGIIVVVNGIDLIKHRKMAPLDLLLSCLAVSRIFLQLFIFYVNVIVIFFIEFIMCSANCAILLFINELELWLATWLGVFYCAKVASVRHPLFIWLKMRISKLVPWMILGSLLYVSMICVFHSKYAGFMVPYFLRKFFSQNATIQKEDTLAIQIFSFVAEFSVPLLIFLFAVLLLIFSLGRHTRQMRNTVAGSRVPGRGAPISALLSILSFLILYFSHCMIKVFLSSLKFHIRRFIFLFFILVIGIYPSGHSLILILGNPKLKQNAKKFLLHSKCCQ
The experiment in a line: FLIPR calcium mobilization, hTAS2R1-transfected HEK-293T/Gα16gust44 cells. To be noted: response of hTAS2R1, calcium signal; for threshold: Fluo4-AM, transiently transfected HEK-293T Gα16gust44; for EC50: dose-response. (Calcium flux is commonly read through the fluorescence of an indicator in the cells.)

The next experiment has as its target T3, hTAS2R3 (Homo sapiens, UniProt Q9NYW6).
T3 construct: export tag: amino acids 1-45 of rat somatostatin receptor 3 (N); expressed in transfected cells; host or cells: HEK-293T cells stably expressing the chimeric G-protein subunit Galpha16gust44
T3 sequence (Q9NYW6 1-316): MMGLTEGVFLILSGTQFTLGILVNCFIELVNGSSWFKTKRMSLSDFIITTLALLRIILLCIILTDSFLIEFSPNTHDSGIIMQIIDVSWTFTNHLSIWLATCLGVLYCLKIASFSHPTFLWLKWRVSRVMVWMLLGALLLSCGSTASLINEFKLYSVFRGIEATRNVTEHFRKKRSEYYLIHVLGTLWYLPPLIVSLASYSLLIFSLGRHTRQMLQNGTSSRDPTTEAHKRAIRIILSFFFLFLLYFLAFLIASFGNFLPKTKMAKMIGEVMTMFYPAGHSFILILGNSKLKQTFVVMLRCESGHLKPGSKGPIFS
The experiment in a line: FLIPR calcium mobilization, hTAS2R3-transfected HEK-293T/Gα16gust44 cells. To be noted: response of hTAS2R3; calcium signal. The procedure:
as §1, with “Cells were washed 3× in solution C1 (130 mM NaCl, 5 mM KCl, 10 mM Hepes, 2 mM CaCl2, and 10 mM Glucose, pH 7.4).” left out, “Ligands (Sigma-Aldrich) were dissolved in C1 solution. All data were collected from experiments carried out in triplicate.” left out

A further experiment concerns the target T4, hTAS2R40 (Homo sapiens, UniProt P59535).
T4 construct: export tag: amino acids 1-45 of rat somatostatin receptor 3 (N); expressed in transfected cells; host or cells: HEK-293T cells stably expressing the chimeric G-protein subunit Galpha16gust44
The experiment in a line: FLIPR calcium mobilization, hTAS2R40-transfected HEK-293T/Gα16gust44 cells. To be noted: response of hTAS2R40; calcium signal. The procedure:
as §1, with “Cells were washed 3× in solution C1 (130 mM NaCl, 5 mM KCl, 10 mM Hepes, 2 mM CaCl2, and 10 mM Glucose, pH 7.4).” left out, “Ligands (Sigma-Aldrich) were dissolved in C1 solution. All data were collected from experiments carried out in triplicate.” left out

T4 sequence (P59535 whole entry, the tested form may be a part): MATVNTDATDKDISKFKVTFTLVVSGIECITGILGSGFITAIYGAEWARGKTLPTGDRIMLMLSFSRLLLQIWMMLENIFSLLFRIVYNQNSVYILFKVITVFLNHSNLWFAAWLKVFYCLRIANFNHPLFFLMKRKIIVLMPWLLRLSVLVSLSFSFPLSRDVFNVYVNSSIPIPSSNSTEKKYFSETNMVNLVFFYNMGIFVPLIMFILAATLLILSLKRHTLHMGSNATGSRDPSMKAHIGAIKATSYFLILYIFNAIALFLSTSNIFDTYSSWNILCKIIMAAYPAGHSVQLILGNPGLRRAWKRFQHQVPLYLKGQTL
Description for hTAS2R1: Ligand screening using an automated fluorometric imaging plate reader (Molecular Devices) was essentially done as described (Bufe B. et al. (2002) Nature Genetics 32: 397-401). Briefly: The cells were seeded at a density of 70,000±10,000 cells per well in 96-well microtiter plates. The cDNA of hTAS2R1, hTASR3, hTASR7 and hTASR40 supplemented with an amino terminal export tag corresponding to amino acids 1-45 of rat somatostatin receptor 3 and a carboxy terminal HSV-tag was transiently transfected into HEK-293T cells stably expressing the chimeric G-protein subunit Gα16gust44 (Ueda T. et al. (2003) J. Neurosci. 23: 7376-7380) using Lipofectamine2000 (Invitrogen). […] 24-32 hours after transfection, the cells were then loaded for 1 hour with the calcium sensitive dye Fluo4-AM (2 μg/ml in DMEM, Molecular Probes). Cells were washed 3× in solution C1 (130 mM NaCl, 5 mM KCl, 10 mM Hepes, 2 mM CaCl2, and 10 mM Glucose, pH 7.4). Calcium mobilization was monitored by an automated fluorometric imaging plate reader (Molecular Devices). Ligands (Sigma-Aldrich) were dissolved in C1 solution. All data were collected from experiments carried out in triplicate. For dose-response curves, the obtained calcium signals were corrected for and normalized to background fluorescence ΔF/F=(F−F0)/F0 and baseline noise was subtracted.

In the case of `O=C(O)c1cc(=O)c2c(OCC(O)COc3cccc4oc(C(=O)O)cc(=O)c34)cccc2o1` [Cromolyn, cromolyn], at hTAS2R7, the max. amplitude is 3000 counts and the threshold is on record as about 1 mM. On hTAS2R7 (dose-response), the EC50 amounted to 9000 µM.

In the case of `COC(=O)[C@@H]1[C@H]2C[C@H]3c4[nH]c5ccccc5c4CCN3C[C@@H]2CC[C@@H]1O` [Yohimbine, yohimbine], on hTAS2R1, the max. amplitude amounted to 3000 counts and the threshold was about 0.03 mM.

In the case of `CN1CC(=O)NC1=N` [Creatinine, creatinine], on hTAS2R3, the max. amplitude amounted to 5000 counts and the threshold was about 30 mM. Further, at hTAS2R7, the max. amplitude is 3000 counts and the threshold is about 10 mM.

As to humulone, at hTAS2R1, the max. amplitude turned out to be 9000 counts, the threshold was about 0.0001 mM and the 50% effective concentration (EC50) is 0.9 µM. Besides, at hTAS2R40, the max. amplitude is recorded as 6000 counts and the threshold was under 0.00003 mM.

As for `C=C(C)[C@@H]1[C@H]2OC(=O)[C@@H]1[C@]1(O)C[C@H]3O[C@]34C(=O)O[C@H]2[C@]14C` [Picrotoxinin, picrotoxinin], at hTAS2R1, the max. amplitude worked out at 2000 counts and the threshold is about 0.0001 mM.

`O=C(N[C@H](CO)[C@H](O)c1ccc([N+](=O)[O-])cc1)C(Cl)Cl` [Chloramphenicol, chloramphenicol]: on hTAS2R1, the max. amplitude came out at 9000 counts, the threshold is reported as about 0.1 mM and the concentration for a half-maximal effect (EC50) is 200 µM.

By EC50 is commonly meant the concentration needed to bring the measured effect to its halfway point.
